Measurements published in the NIST ThermoML archive (doi:10.1016/j.jct.2011.08.028).

Experiments:
[1] = xn = mol fraction of the nth substance listed; settings: 298.15 K, 101 kPa, Liquid; for speed of sound: Sing-around technique in a fixed-path interferometer; for mass density: Vibrating tube method
[2] = refractive index (Na D-line) (dimensionless); xn = mol fraction of the nth substance listed; settings: 298.15 K, 101 kPa, Liquid, Standard Abbe refractometry
[3] = refractive index (Na D-line) (dimensionless); settings: 101.33 kPa, Liquid, Standard Abbe refractometry
[4] = Liquid; for speed of sound: Sing-around technique in a fixed-path interferometer; for mass density: Vibrating tube method; for viscosity: Capillary tube (Ostwald / Ubbelohde) method

CO [methanol] + CCCn1cc[n+](C)c1.O=S(=O)([N-]S(=O)(=O)C(F)(F)F)C(F)(F)F
x1 = 1
Settings	mass density [kg/m3]	refractive index	speed of sound [m/s]
[1]	786.59	–	1103
[2]	–	1.32648	–

CCCn1cc[n+](C)c1.O=S(=O)([N-]S(=O)(=O)C(F)(F)F)C(F)(F)F
[3]
Settings	refractive index
293.15 K	1.42669
298.15 K	1.42525
303.15 K	1.42378
308.15 K	1.42224
313.15 K	1.42076
318.15 K	1.41926
323.15 K	1.41776
328.15 K	1.41625
333.15 K	1.41479
338.15 K	1.41334
343.15 K	1.41185

[4], 101.33 kPa
Settings	mass density [kg/m3]	speed of sound [m/s]	viscosity [mPa·s]
293.15 K	1479.39	1243	–
298.15 K	1474.44	1232	43.7
303.15 K	1469.5	1221	35.68
308.15 K	1464.58	1210	29.51
313.15 K	1459.67	1199	24.77
318.15 K	1454.78	1188	21.01
323.15 K	1449.91	1178	18.04
328.15 K	1445.06	1168	15.59
333.15 K	1440.23	1157	13.63
338.15 K	1435.42	1147	12.02
343.15 K	1430.62	1137	10.66

CCCn1cc[n+](C)c1.O=S(=O)([N-]S(=O)(=O)C(F)(F)F)C(F)(F)F + CCO
Settings	mass density, [1] [kg/m3]	refractive index, [2]	speed of sound, [1] [m/s]
x2 = 0	1474.44	1.42525	1232
x2 = 0.053	1465.87	1.42443	1230
x2 = 0.099	1458.19	1.42378	1227
x2 = 0.1914	1441.04	1.42214	1223
x2 = 0.2948	1418.06	1.42008	1216
x2 = 0.3909	1391.82	1.41788	1209
x2 = 0.4992	1354.59	1.41421	1200
x2 = 0.5912	1313.64	1.41045	1190
x2 = 0.6978	1249.77	1.4045	1176
x2 = 0.7938	1167.28	1.39689	1162
x2 = 0.895	1033.88	1.38426	1146
x2 = 0.9431	940.65	1.37524	1142

CCCn1cc[n+](C)c1.O=S(=O)([N-]S(=O)(=O)C(F)(F)F)C(F)(F)F + CO
Settings	mass density, [1] [kg/m3]	refractive index, [2]	speed of sound, [1] [m/s]
x2 = 0	1474.44	1.42525	1232
x2 = 0.099	1463.12	1.4237	1228
x2 = 0.2012	1449.69	1.42185	1223
x2 = 0.2973	1434.29	1.41964	1218
x2 = 0.4068	1411.9	1.41652	1211
x2 = 0.5067	1385.1	1.41274	1203
x2 = 0.601	1351.31	1.40806	1192
x2 = 0.6936	1305.17	1.40193	1179
x2 = 0.7948	1228.8	1.39113	1159
x2 = 0.9009	1085.51	1.37097	1129
x2 = 0.9499	972.1	1.35417	1115

CC(C)O [propan-2-ol]
Settings	refractive index
[3], 298.15 K	1.375

[4], 298.15 K, 101 kPa
Settings	mass density [kg/m3]	speed of sound [m/s]
–	780.98	1139

CCCn1cc[n+](C)c1.O=S(=O)([N-]S(=O)(=O)C(F)(F)F)C(F)(F)F + CC(C)O
Settings	mass density, [1] [kg/m3]	refractive index, [2]	speed of sound, [1] [m/s]
x2 = 0	1474.44	1.42525	1232
x2 = 0.0493	1463.7	1.42452	1228
x2 = 0.0921	1454.1	1.42385	1226
x2 = 0.291	1401.23	1.42016	1212
x2 = 0.4093	1360.46	1.41732	1202
x2 = 0.5071	1318.46	1.41439	1191
x2 = 0.6113	1262.2	1.41043	1178
x2 = 0.6964	1203.91	1.40624	1166
x2 = 0.803	1106.76	1.39926	1148
x2 = 0.9009	979.02	1.39013	1135
x2 = 0.9503	892.06	1.38375	1134

CCCO [propan-1-ol]
Settings	refractive index
[3], 298.15 K	1.38307

[4], 298.15 K, 101 kPa
Settings	mass density [kg/m3]	speed of sound [m/s]
–	800.09	1207

CCO [ethanol] + CCCn1cc[n+](C)c1.O=S(=O)([N-]S(=O)(=O)C(F)(F)F)C(F)(F)F
x1 = 1
Settings	mass density [kg/m3]	refractive index	speed of sound [m/s]
[1]	785.33	–	1144
[2]	–	1.35929	–

CO [methanol]
Settings	refractive index
[3], 298.15 K	1.32648

[4], 298.15 K, 101 kPa
Settings	mass density [kg/m3]	speed of sound [m/s]
–	786.59	1103

CC(C)O [propan-2-ol] + CCCn1cc[n+](C)c1.O=S(=O)([N-]S(=O)(=O)C(F)(F)F)C(F)(F)F
x1 = 1
Settings	mass density [kg/m3]	refractive index	speed of sound [m/s]
[1]	780.98	–	1139
[2]	–	1.375	–

CCCn1cc[n+](C)c1.O=S(=O)([N-]S(=O)(=O)C(F)(F)F)C(F)(F)F + CCCO
Settings	mass density, [1] [kg/m3]	refractive index, [2]	speed of sound, [1] [m/s]
x2 = 0	1474.44	1.42525	1232
x2 = 0.0787	1457.82	1.42424	1228
x2 = 0.1022	1452.69	1.42391	1227
x2 = 0.247	1417.04	1.42164	1220
x2 = 0.39	1372.22	1.41887	1212
x2 = 0.442	1352.74	1.41758	1208
x2 = 0.4877	1333.71	1.41661	1205
x2 = 0.569	1294.62	1.41422	1198
x2 = 0.6455	1250.12	1.41148	1191
x2 = 0.703	1209.58	1.40897	1187
x2 = 0.75	1170.92	1.40667	1183
x2 = 0.8048	1117.65	1.40345	1179
x2 = 0.8492	1066.16	1.40025	1178

CCO [ethanol]
Settings	refractive index
[3], 298.15 K	1.35929

[4], 298.15 K, 101 kPa
Settings	mass density [kg/m3]	speed of sound [m/s]
–	785.33	1144

CCCO [propan-1-ol] + CCCn1cc[n+](C)c1.O=S(=O)([N-]S(=O)(=O)C(F)(F)F)C(F)(F)F
x1 = 1
Settings	mass density [kg/m3]	refractive index	speed of sound [m/s]
[1]	800.09	–	1207
[2]	–	1.38307	–
